US11319306B2, “Compositions and methods for treating neurodegenerative diseases” (Azevan Pharmaceuticals, Inc., priority 2014, dated 2022)
Like-named read-outs stand apart in the source and are kept apart here.

What was measured:
[1] = molecular target: T1, human V1a receptor (Homo sapiens, UniProt P37288); assay: Inhibition of phosphatidylinositol turnover (V1a); format: cell-based; details: inhibition of vasopressin-mediated phosphatidylinositol turnover
T1 construct: host or cells: CHO cells (hV1a cell line)
T1 sequence (P37288 whole entry): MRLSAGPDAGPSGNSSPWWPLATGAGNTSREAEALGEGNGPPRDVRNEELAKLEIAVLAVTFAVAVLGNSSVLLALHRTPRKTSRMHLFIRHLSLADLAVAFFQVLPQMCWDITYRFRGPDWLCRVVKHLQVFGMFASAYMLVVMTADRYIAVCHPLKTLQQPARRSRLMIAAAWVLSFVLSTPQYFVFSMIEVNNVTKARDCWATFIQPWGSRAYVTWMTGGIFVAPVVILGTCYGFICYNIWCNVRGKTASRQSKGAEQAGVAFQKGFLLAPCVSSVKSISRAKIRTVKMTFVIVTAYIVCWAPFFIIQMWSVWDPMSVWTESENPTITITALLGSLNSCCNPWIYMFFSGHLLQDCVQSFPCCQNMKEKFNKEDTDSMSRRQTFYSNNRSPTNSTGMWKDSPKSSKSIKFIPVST
Source text: The physiological effects of vasopressin are mediated through specific G-protein coupled receptors. The vasopressin V1a receptor is coupled to the Gq/G11 family of G proteins and mediates phosphatidylinositol turnover. The agonist or antagonist character of the compounds of the invention may be determined by their ability to inhibit vasopressin-mediated turnover of phosphatidylinositol by the procedure described in the following paragraphs.
Cell culture and labeling of cells.
All assays were in triplicate except for basal and 10 nM AVP (both n=6). AVP ((arginine vasopressin), Peninsula Labs, Belmont, Calif., USA (#8103)) was dissolved in 0.1N acetic acid. Test agents were dissolved in DMSO and diluted in DMSO to 200 times the final test concentration. […] The order of incubations was randomized. Incubations were initiated by removing the prelabeling medium, washing the monolayer once with 1 mL of 0.9% NaCl, and transferring the contents of the assay tubes to corresponding wells. The plates were incubated for 1 hour at 37° C. Incubations were terminated by removing the incubation medium and adding 500 μL of ice cold 5% (w/v) trichloroacetic acid and allowing the wells to stand for 15 min.
BioRad Poly-Prep Econo-Columns were packed with 0.3 mL of AG 1 X-8 100-200 formate form resin. Resin was mixed 1:1 with water and 0.6 mL added to each column. Columns were then washed with 10 mL water. Scintillation vials (20 mL) were placed under each column. For each well, the contents were transferred to a minicolumn, after which the well was washed with 0.5 mL distilled water, which was also added to the minicolumn. The columns were then washed twice with 5 mL of 5 mM myo-inositol to elute free inositol. Aliquots (1 mL) were transferred to 20 mL scintillation vials and 10 mL of Beckman Ready Protein Plus added. After the myo-inositol wash was complete, empty scintillation vials were placed under the columns, and [^3H]inositol phosphates were eluted with three additions of 1 mL 0.5 M ammonium formate containing 0.1 N formic acid. Elution conditions were optimized to recover inositol mono-, bis-, and trisphosphates, without eluting the more metabolically inert tetrakis-, pentakis-, and hexakis-phosphates. To each sample was added 10 mL of a high salt capacity scintillation fluid such as Tru-Count High Salt Capacity or Packard Hionic-Fluor. Inositol lipids were measured by adding 1 mL of 2% sodium dodecyl sulfate (SDS) to each well, allowing the wells to stand for at least 30 min., and transferring the solution to 20 mL scintillation vials, to which 10 mL Beckman Ready Protein Plus scintillation fluid was then added. Samples were counted in a Beckman LS 3801 liquid scintillation counter for 10 min. Total inositol incorporation for each well was calculated as the sum of free inositol, inositol phosphates, and inositol lipids.
Concentration-response curves for AVP and concentration-inhibition curves for test agents versus 10 nM AVP were analyzed by nonlinear least-squares curve-fitting to a 4-parameter logistic function. Parameters for basal and maximal inositol phosphates, EC50 or IC50, and Hill coefficient were varied to achieve the best fit. The curve-fitting was weighted under the assumption that the standard deviation was proportional to dpm of radioactivity.

[2] = molecular target: T1, human V1a receptor; assay: Human vasopressin V1a receptor binding assay (3H-AVP competition, hV1a CHO cells); details: for IC50: read-out: V1a Binding Affinity IC50
Protocol: Human vasopression V1a receptor binding assay. A cell line expressing the human V1a receptor in CHO cells (henceforth referred to as the hV1a cell line) was obtained from Dr. Michael Brownstein, NIMH, Bethesda, Md., USA. The hV1a cDNA sequence is described by Thibonnier et al., Journal of Biological Chemistry, 269, 3304-3310 (1994), and the expression method was the same as described by Morel et al. (1992). The hV1a cell line was grown in alpha-MEM with 10% fetal bovine serum and 250 ug/ml G418 (Gibco, Grand Island, N.Y., USA). For competitive binding assay, hV1a cells were plated into 6-well culture plate at 1:10 dilution from a confluency flask, and maintained in culture for at least two days. Culture medium was then removed, cells were washed with 2 ml binding buffer (25 mM Hepes, 0.25% BSA, 1×DMEM, PH=7.0). To each well, 990 μl binding buffer containing InM 3H-AVP was added, and followed by 10 μl series diluted Example compounds dissolved in DMSO. […] 100 nM cold AVP (Sigma) was used to assess non-specific binding. Cells were incubated for 45 minutes at 37° C., assay mixture was removed and each well was washed three times with PBS (pH=7.4). 1 ml 2% SDS was added per well and plates were let sit for 30 minutes. The whole content in a well was transferred to a scintillation vial. Each well was rinsed with 0.5 ml PBS which was then added to the corresponding vial. Scintillation fluid (Ecoscint, National Diagnostics, Atlanta, Ga.) was then added at 3 ml per vial. Samples were counted in a liquid scintillation counter (Beckman LS3801). IC50 values were calculated by Prism Curve fitting software.
All of the alkanedioic esters and amides exemplified in the foregoing examples dissolved in DMSO were tested in this assay. Binding curves were generated according to methods described by Thibonnier et al. (1994). [^3H]-AVP was added to the hV1a cell cultures followed by 10-fold dilutions of each test compound.

[3] = test system: awake rats; assay: Resident-intruder model of stress and aggression in rats, awake fMRI neuroimaging; format: in vivo, rat
Source text: Resident-intruder model of stress and aggression in rats. Neuroimaging is used to assess the blockade of stress/arousal with test compound compared to control. The effect of AVN251-HCl on functional circuitry was examined using the imaging method for awake rats. Additional details of the assay are described in Ferris et al. Imaging the neural circuitry and chemical control of aggressive motivation.
Male rats in the company of a female cage mate piloerect in the presence of a male intruder. Piloerection is a sign of stress and aggressive intent and is associated with activation of stress/arousal circuits in the brain. Stress circuit activation in response to an intruder male is assessed by obtaining brain scans viewed from a caudal/dorsal perspective as translucent shells. The localization of activated voxels is mapped as 3D volumes of activation, which are composed of 10 subjects each. Once fully registered and segmented, the statistical responses for each subject are averaged on a voxel-by-voxel basis. Those averaged voxels exceeding a 2.0% threshold are shown in their appropriate spatial location. Functional images are acquired on awake rats at 4.7 T.
Resident male rats from six male/female pairs are imaged while fully awake, and presented with their mate, or their mate+an intruder, a highly stressful stimulus. […] The total volume of brain activation for resident males confronted with their mate alone, mate plus intruder, and mate plus intruder in the presence of AVN251-HCl are viewed as 3D models.
Awake rats are imaged when presented with their mate, or their mate+an intruder. […] In each scan, the dark shaded areas represent activation of vasopressin receptor signaling.

[4] = test system: Adult male Long Evans rats; assay: Light/dark shuttle box; format: in vivo, rat
Protocol: Anxiolytic Effect in the Light/Dark Shuttle Box. The light/dark shuttle box is a standard and well characterized assay for anxiolytic effects of a test compound. Rats naturally avoid the light side of the box because it is stressful. Increased time on the light side by the treatment group compared to control reflects an anxiolytic effect (Bourin and Hascoet, 2003). Adult male Long Evans rats are administered AVN251 (0.1-2 mg/kg) by oral gavage 90 min prior to testing in a light/dark shuttle box.

[5] = 3H-AVP competition, CHO cells expressing human V1a
[6] = 3H-AVP competition, CHO cells expressing human V1a, read-out: V1a Ki

Row | agonist or antagonist character [1] | IC50 [2, 5] | Ki [2, 6] | Molecule | other results
1 | vasopressin V1a antagonists |  |  | O=C(NCc1cccc(C(F)(F)F)c1)[C@H](CCC(=O)N1CCN(CCc2ccccc2)CC1)N1C(=O)[C@@H](N2C(=O)OC[C@@H]2c2ccccc2)[C@H]1C=Cc1ccccc1 (single isomer, unassigned) [Example 35] | 
2 | vasopressin V1a antagonists | 2.4 nM | 1.45 nM | O=C(NCc1cccc(C(F)(F)F)c1)C(CCC(=O)N1CCC(N2CCCCC2)CC1)N1C(=O)C(N2C(=O)OCC2c2ccccc2)C1C=Cc1ccccc1 (single isomer, unassigned) [Example 88] | 
3 | vasopressin V1a antagonists |  |  | O=C(NCc1cccc(C(F)(F)F)c1)C(CCC(=O)N1CCN(C2CCCCC2)CC1)N1C(=O)C(N2C(=O)OCC2c2ccccc2)C1C=Cc1ccccc1 (single isomer, unassigned) [Example 110] | 
4 | vasopressin V1a antagonists | 3.1 nM | 1.89 nM | O=C(NCc1cccc(C(F)(F)F)c1)C(CC(=O)N1CCC(N2CCCCC2)CC1)N1C(=O)C(N2C(=O)OCC2c2ccccc2)C1C=Cc1ccccc1 (stereo not shown) [Example 44] | 
5 | vasopressin V1a antagonists | 2.43 nM | 1.49 nM | O=C(NCc1cccc(C(F)(F)F)c1)C(CC(=O)N1CCC(N2CCCCC2)CC1)N1C(=O)C(N2C(=O)OCC2c2ccccc2)C1C=Cc1ccccc1 (stereo not shown) [Example 133] | 
6 |  |  | 0.66 nM | CN(Cc1cccc(C(F)(F)F)c1)C(=O)[C@@H](CC(=O)N1CCC(N2CCCCC2)CC1)N1C(=O)[C@@H](N2C(=O)OC[C@@H]2c2ccccc2)[C@H]1/C=C/c1ccccc1 [Example 225, 2(R)-[[4-(Piperidinyl)piperidinyl]carbonylmethyl]-2-[3(S)-(4(S)-phenyloxazolidin-2-on-3-yl)-4(R)-(2-styryl)azetidin-2-on-1-yl]acetic acid N-methyl-N-(3-trifluoromethylbenzyl)amide] | Ki ([2]; receptor selectivity table, read-out: inhibition data Ki, V1a): 0.66 nM; activation of vasopressin receptor signaling in brain scans (FIG. 4 vs FIG. 3) ([3]; amygdala, cortex, hippocampus, thalamus, mate+intruder): lower activation of vasopressin receptor signaling than the untreated controls; stress/arousal response in amygdala, cortex, hippocampus and thalamus ([3]; pretreatment 5 mg/kg 90 minutes before test session, mate + intruder, listed as AVN251): blocked the stress/arousal response; anxiety compared to vehicle ([4]; 0.1-2 mg/kg oral gavage 90 min prior to testing): dose dependent decrease in anxiety; light-dark entries (FIG. 6C) ([4]; 1 or 2 mg/kg): more light-dark entries; time in the dark (FIG. 6B) ([4]; 1 or 2 mg/kg, p<0.01): less time in the dark; time in the light (FIG. 6A) ([4]; 1 or 2 mg/kg, p<0.01): more time in the light
7 |  | 6.5 nM | 4 nM | O=C(N[C@@H]1CCCc2ccccc21)[C@H](CCC(=O)N1CCN(C2CCCCC2)CC1)N1C(=O)[C@@H](N2C(=O)OC[C@@H]2c2ccccc2)[C@H]1/C=C/c1ccccc1Cl [Example 250] | 
8 |  | 0.5 nM | 0.3 nM | O=C(N[C@@H]1CCCc2ccccc21)[C@H](CCC(=O)N1CCN(C2CCCCC2)CC1)N1C(=O)[C@@H](N2C(=O)OC[C@@H]2c2cccc(Cl)c2)[C@H]1/C=C/c1cccc(Cl)c1 [Example 251] | 
9 |  | 1.8 nM | 1.1 nM | O=C(N[C@@H]1CCCc2ccccc21)[C@H](CCC(=O)N1CCN(C2CCCCC2)CC1)N1C(=O)[C@@H](N2C(=O)OC[C@@H]2c2ccccc2)[C@H]1/C=C/c1cc(Cl)cc(Cl)c1 [Example 252] | 
10 |  | 0.12 nM | 0.073 nM | CC(NC(=O)C(CC(=O)N1CCC(N2CCCCC2)CC1)N1C(=O)C(N2C(=O)OCC2c2ccccc2)C1C=Cc1cccc(Cl)c1)c1ccccc1 (stereo not shown) [Example 559] | 
11 |  | 1 nM | 0.62 nM | CC(NC(=O)C(CC(=O)N1CCC(CN2CCCCC2)CC1)N1C(=O)C(N2C(=O)OCC2c2ccccc2)C1C=Cc1ccccc1)c1ccccc1 (stereo not shown) [Example 601] | 
12 |  | 0.53 nM | 0.32 nM | CC(NC(=O)C(CC(=O)N1CCC(N2CCCCC2)CC1)N1C(=O)C(N2C(=O)OCC2c2ccccc2)C1C=Cc1cccc(Br)c1)c1ccccc1 (stereo not shown) [Example 606] | 
13 |  |  | 1.1 nM | CC(NC(=O)C(CC(=O)N1CCC([N+]2([O-])CCCCC2)CC1)N1C(=O)C(N2C(=O)OCC2c2ccccc2)C1C=Cc1ccccc1)c1ccccc1 (stereo not shown) [Example 672] | 
14 |  |  | 3 nM | O=C(NCc1ccccc1F)C(CC(=O)N1CCC(N2CCCCC2)CC1)N1C(=O)C(N2C(=O)OCC2c2ccccc2)C1C=Cc1ccccc1 (stereo not shown) [Example 677] | 
15 |  |  |  | CNCCC(Oc1ccc(C(F)(F)F)cc1)c1ccccc1 (stereo not shown) [fluoxetine, reference compound] | sexual motivation / mesocorticolimbic dopamine reward system activation ([3]; presentation of novel receptive female): markedly diminishes activation of this circuit; stress circuit activation (BOLD), mate plus intruder ([3]; resident male rats, 5 mg/kg oral gavage): decreased activation of both the stress circuits and the mesocorticolimbic dopamine reward system
16 |  | 9 nM | 5.5 nM | (2S)-[(4-cyclohexylpiperazinyl)carbonylethyl]-2-[3(S)-(4(S)-phenyloxazolidin-2-on-3-yl)-4(R)-(2-phenyleth-1-yl)azetidin-2-on-1-yl]acetic acid N—[(R)-1,2,3,4-tetrahydronaphth-1-yl]amide [Example 236A] | 
